Laboratory results reported in patent US20230141988A1, “PHARMACEUTICAL COMPOSITION FOR USE IN THE TREATMENT OF NEUROLOGICAL DISEASES” (Aclipse One Inc., priority 2020, published 2023).
Values joined by “and” are separate entries in the source; they are usually repeats but may differ in a detail not shown here. Identical values can stand only once. Like-named read-outs stand apart in the source and are kept apart here.

Columns and labels:
[1] = in vivo; details: male, C57BL/6J, mouse, po, 25 mg/kg; for concentration at […]: […] post last day (Day 4) dose
Description: (§1) Male C57BL/6J mice were purchased from Si Bei Fu Laboratory Animal Technology Co. Ltd (Beijing, China). The animals were about 8 weeks old with body weights of 20-30 g on the dosing date. The animals were housed in a 12-hour light/12-hour dark cycle environment and had free access to food and water. All animals were fasted overnight and fed after 4 hours collection.
The formulation was freshly made prior to use. Preparation of formulation for oral dosing are as follows:
For Group 1 and 2, blood, CSF and brain samples were collected from 3 mice at the following time points.
Plasma samples: About 30 μL or 300 μL of blood samples were collected from each animal via dorsal metatarsal vein or heart. These blood samples were placed into the tubes containing K2EDTA. And centrifugation at 3000 g for 10 minutes in a 4° C. centrifuge. The completion time from collection was less than 30 min. The stabilizing agent of ascorbic acid at 200 mg/mL was added in a proportion of 10% in plasma. The plasma samples were stored in a freezer at −75±15° C. prior to analysis. The completion time from collection was less than 60 min.
Brain and CSF Samples: The animals were fully exsanguinated with a rising concentration of CO2 gas prior to CSF and brain collection.
For CSF collection, make an incision by scissors on the neck of the rats, and the foramen magnum is exposed to the sight of scientist. Use a syringe with a venoclysis needle to sample the CSF, the tip of the needle is insert into the membrane of foramen magnum about 1-2 mm, and then pull the stopcock a small length of the syringe to make a negative pressure, then the CSF fluids to the tube. Watch the fluid in the tube and pull the stopcock slowly, when the amount of the CSF is enough, stop and split the needle and the syringe to ensure there is no negative pressure in the tube. Then cut off the needle and collect the CSF fluid. If we could see the blood in the tube, stop immediately, split the needle and the syringe, and then cut off between the blood and CSF to ensure there is no blood in the CSF fluid. Then collect the CSF fluid. The stabilizing agent of ascorbic acid at 200 mg/mL was added in a proportion of 10% in CSF. The completion time from collection was less than 60 min.
For brain collection. Brain samples were collected at adopted time point, and washed 3 times with cold saline, then dried with clean gauze and put into the weighed tube, quick frozen in ice box and kept at −75±15° C. All brain samples were weighted and homogenized with phosphate buffered saline (PBS) by brain weight (g) to PBS volume (mL) ratio 1:3 before analysis. The stabilizing agent of ascorbic acid at 200 mg/mL was added in a proportion of 10% in Brain homogenate. The actual concentration was the detected value multiplied by the dilution factor. Brain samples were collected at designed time point, quickly homogenized and kept at −75±15° C. The completion time from collection was less than 60 min.
Calibration standard working solutions were prepared at concentrations of 0.2, 0.5, 1, 2, 5, 10, 50, 100, 500, 1000 ng/mL by serial dilution of the standard stock solution. These QC samples were prepared on the day of analysis in the same way as calibration standards.
Plasma: The desired serial concentrations of working solutions were achieved by diluting stock solution of analyte with 50% acetonitrile in water solution. 10 μL of working solutions (0.1, 0.2, 0.5, 1, 2, 5, 10, 50, 100, 500, 1000 ng/mL) were added to 10 μL of the blank C57BL/6J Mice plasma to achieve calibration standards of 0.1˜1000 ng/mL (0.1, 0.2, 0.5, 1, 2, 5, 10, 50, 100, 500, 1000 ng/mL) in a total volume of 20 μL.

[2] = rat, in vivo; for plasma concentration: male, SD
Description: The vehicle for the IV, subcutaneous, PO and IN formulation contained “0.1% sodium metabisulfite solution”.
Male SD rats were purchased from Si Bei Fu Laboratory Animal Technology Co. Ltd (Beijing, China). The animals were about 8 weeks old with body weights of 200-300 g on the dosing date. The animals were housed in a 12-hour light/12-hour dark cycle environment and had free access to food and water. All animals were fasted overnight and fed after 4 hours collection.
Plasma samples were collected from jugular vein at each time point after IV, subcutaneous, PO and IN administrations.
About 200 μL of blood samples were collected from each animal via jugular vein. These blood samples were placed into the tubes containing K2EDTA. And centrifugation at 3000 g for 10 minutes in a 4° C. centrifuge. The completion time from collection was less than 30 min. The stabilizing agent of ascorbic acid at 200 mg/mL was added in a proportion of 10% in plasma. The plasma samples were stored in a freezer at −75±15° C. prior to analysis. The completion time from collection was less than 60 min.
Calibration standard working solutions were prepared at concentrations of 2, 5, 10, 20, 50, 100, 500, 1000, 5000 and 10000 ng/mL by serial dilution of the standard stock solution in 50% acetonitrile in water. Quality control working solutions at concentrations of 5, 10, 20, 500 and 8000 ng/mL were prepared by serial dilution of the standard stock solution in 50% acetonitrile in water. These QC samples were prepared on the day of analysis in the same way as calibration standards.
For plasma samples, 2 μL of each calibration standard working solution (2, 5, 10, 20, 50, 100, 500, 1000, 5000 and 10000 ng/mL) was added to 20 μL of the blank SD rat plasma (with 10% 200 mg/mL ascorbic acid) to achieve calibration standards of 0.2-1000 ng/mL (0.2, 0.5, 1, 2, 5, 10, 50, 100, 500, 1000 ng/mL) in a total volume of 22 μL. Quality Control (QC) samples at 0.5 ng/mL (low-1), 1 ng/mL (low-2) and 2 ng/mL (low-3), 50 ng/mL (mid), 800 ng/mL (high) for plasma were prepared independently for those used for the calibration curves. These QC samples were prepared on the day of analysis in the same way as calibration standards. The total volumes of 22 μL of standards, 22 μL of QC samples and 22 μL of unknown samples (20 μL of unknown plasma (with 10% 200 mg/mL ascorbic acid) with 2 μL 50% acetonitrile) were added to 200 μL of acetonitrile containing IS to precipitate proteins. Then the samples were vortexed for 30 sec. After centrifugation at 4° C., 4700 rpm for 30 min, and supernatant was diluted 2 times with water, 10 μL of the diluted supernatant was injected into the LC-MS/MS system for quantitative analysis.
All the samples were processed on ice.
The LC-MS/MS system consisted of two Shimadzu LC-30AD pumps, a DGU-20A5R degasser, a Rack changer II and LCMS-8060 LC/MS/MS instrument mass spectrometer.
OD-3R Particle size 3 μm 4.6 mm×150 mm column at room temperature. The mobile phase was composed of A: Water (5 mM Ammonium Acetate); B: Ethanol (5 mM Ammonium Acetate). The flow rate was 0.5 mL/min. The injection volume was 10 μL.
A multiple reaction monitoring (MRM) method was selected for quantitative analysis. […] The instrument parameters were set as follows: ion spray voltage: 8060; heating gas flow: 10 L/min; interface temperature: 250° C.; DL temperature: 220° C.; heat block temperature: 400° C.; drying gas flow: 10 L/min.
Data acquisition was performed by Lab Solutions version 5.89 Software (Shimadzu). All concentration data was reported with 3 significant figures. Data statistics were performed using Excel 2010 software.
The linear trapezoidal algorithm was used for AUC calculation.

[3] = in vivo
Description: Three non-naïve male beagle dogs supplied by Marshall Bioresources (Beijing, China) were used in this study. The animals were confirmed healthy before being assigned to the study. Each animal was given a unique identification number which was marked on ear and written on the cage card. The room(s) were controlled and monitored for relative humidity (targeted mean range 40% to 70%, and any excursion from this range for more than 3 hours will be documented as a deviation) and temperature (targeted mean range 18° C. to 26° C., and any excursion from this range will be documented as a deviation) with 10 to 20 air changes/hour. The rooms were on a 12-hour light/dark cycle except when interruptions are necessitated by study activities.
Animals were fed twice daily. Stock Dogs were fed approximately 220 grams of Certified Dog Diet daily (Beijing Keao Xieli Feed Co., Ltd. Beijing, P. R. China). These amounts could be adjusted as necessary based on food consumption of the group or an individual body weight change. For PO groups, animals were fed at 3:30 to 4:00 pm on the day prior to oral dosing and any remaining food was removed at 7:00 pm. Food was withheld until 4-hour post-dose. Animals were fed once on the day of dosing, with the amount of approximately 220 grams.
Three male non-naïve beagle dogs were assigned to this study. […] The detailed dosing and sampling regimens are described in the following two tables:
PO formulation preparations were processed in study facility on the day of dosing according to instructions provided by the sponsor. The concentrations of compounds in all dosing solutions were determined by HPLC/UV. Two aliquots were taken from each clear and three aliquots were taken from suspension formulations. All formulation samples were stored at 2-8° C. until analyzed by HPLC/UV. All dose formulation samples were analyzed in duplicate using HPLC/UV.
In plasma, approximately 0.5 mL blood was collected at each time point. All blood samples were collected from a peripheral vessel. All blood samples were transferred into commercially available tubes containing Potassium (K2) EDTA on wet ice and processed for plasma. Samples were centrifuged (3,000×g for 10 minutes at 2 to 8° C.) within 30 minutes of collection. After centrifugation, the stabilizing agent was added to the harvested plasma within 60 minutes. The samples were kept on ice and protected from sunlight (under yellow light). The stabilizing agent was ascorbic acid 200 mg/mL added in a proportion of 10% in plasma. The plasma samples were divided into two equal samples with each at least 0.2 ml (0.2*2 mL/sample) and transferred into labeled polypropylene micro-centrifuge tubes and stored frozen in a freezer set to maintain […] or lower until analyzed.
In CSF, about 0.1 mL/time point (50 μL*2 aliquots) of CSF were collected via the catheter implanted in the Cisterna Magna of conscious beagle dogs without any sedation. The procedures for CSF collection and handling were as follows: a polypropylene tube was weighed to accuracy of 0.1 mg (weight #1). CSF was collected and weighed the sample tube again (weight #2). Total CSF weight=weight #2−weight #1. The samples were kept on ice and protected from sunlight (under yellow light). Stabilizing agent was added within 60 minutes. The stabilizing agent was ascorbic acid 200 mg/mL added in a proportion of 10% in CSF. CSF samples were frozen on dry ice and stored at −60° C. or lower until bio-analysis.
For brain samples, different regions of brain were collected. Dogs were anesthetized and euthanasia according to SOP and collected the brain. The striatum, cortex and cerebellum were token rapidly and homogenized immediately (within 30 min) after being harvested. All the samples were stored at −60° C. or lower freezer finally.
For tissue homogenization, the homogenization solution was methanol:10 mM PBS=1:2 and set on dry ice. An empty conical tube was weighed, recorded, and set on dry ice.

[4] = in vivo; details: male, C57BL/6J, mouse
Description: 9 male C57BL/6J mice following administration of a single subcutaneous dose of 4.40 mg/kg. The vehicle for the subcutaneous formulation contained “0.1% sodium metabisulfite solution”.
as §1
For group 1, plasma samples were collected from dorsal metatarsal vein at each time point after subcutaneous administrations.
For plasma samples, about 30 μL or 300 μL of blood samples were collected from each animal via dorsal metatarsal vein or heart. These blood samples were placed into the tubes containing K2EDTA. And centrifugation at 3000 g for 10 minutes in a 4° C. centrifuge. The completion time from collection was less than 30 min. The stabilizing agent of ascorbic acid at 200 mg/mL was added in a proportion of 10% in plasma. The plasma samples were stored in a freezer at −75±15° C. prior to analysis. The completion time from collection was less than 60 min.
For brain and CSF samples, The animals were fully exsanguinated with a rising concentration of CO2 gas prior to CSF and brain collection.
For CSF collection, incision was made by scissors on the neck of the rats to expose the foramen magnum. A syringe fitted with a venoclysis needle was used to sample the CSF, the tip of the needle was inserted into the membrane of foramen magnum about 1-2 mm, and a negative pressure was applied by pulling a stopcock a small length of the syringe to extract CSF fluids into a tube. The stopcock was further actuated to until a sufficient amount of CSF was collected. There should be no blood in the CSF fluid. A stabilizing agent of ascorbic acid at 200 mg/mL was added in a proportion of 10% in CSF.
For brain collection. Brain samples were collected at an adopted time point, and washed 3 times with cold saline, then dried with clean gauze and put into the weighed tube, quick frozen in an ice box and kept at −75±15° C. All brain samples were weighted and homogenized with phosphate buffered saline (PBS) by brain weight (g) to PBS volume (mL) ratio 1:3 before analysis. The stabilizing agent of ascorbic acid at 200 mg/mL was added in a proportion of 10% in grain homogenate. The actual concentration was the detected value multiplied by the dilution factor. Brain samples were collected at designed time point, quickly homogenized and kept at −75±15° C.
Calibration standard working solutions were prepared at concentrations of 2, 5, 10, 20, 50, 100, 500, 1000, 5000 and 10000 ng/mL by serial dilution of the standard stock solution in 50% acetonitrile in water. Quality control working solutions at concentrations of 5, 10, 500 and 8000 ng/mL were prepared by serial dilution of the standard stock solution in 50% acetonitrile in water. These QC samples were prepared on the day of analysis in the same way as calibration standards.
For plasma and brain samples, 3 μL of each calibration standard working solution (2, 5, 10, 20, 50, 100, 500, 1000, 5000 and 10000 ng/mL) was added to 30 μL of the blank C57BL/6J mouse plasma or brain homogenate (with 10% 200 mg/mL ascorbic acid) to achieve calibration standards of 0.2-1000 ng/mL (0.2, 0.5, 1, 2, 5, 10, 50, 100, 500, 1000 ng/mL) in a total volume of 33 μL. Quality Control (QC) samples at 0.5 ng/mL (low-1), 1 ng/mL (low-2), 50 ng/mL (mid), 800 ng/mL (high) for plasma were prepared independently for those used for the calibration curves. These QC samples were prepared on the day of analysis in the same way as calibration standards.

[5] = male, beagle, dog, in vivo, po, 10 mg/kg
[6] = male, beagle, dog, in vivo, po, 10 mg/kg, 0.5 h
[7] = single PO 10 mg/kg, 0.500 h, individual animal

CN1CCc2cccc3c2[C@@H]1Cc1ccc(O)c(O)c1-3
Tmax [1]: 6 min | AUC(0-t) ([1]; AUClast, plasma, Mean, male C57BL/6J mice, single oral dose 25 mg/kg): 857 ng·h/mL | concentration at 0.5 h ([1]; Brain concentration, Mean): 65.7 ng/g | concentration at 1 h ([1]; Brain concentration, Mean): 22.6 ng/g | concentration at 2 h ([1]; Brain concentration, Mean): 16.8 ng/g | concentration at 3 h ([1]; Brain concentration, Mean): 11.5 ng/g | concentration at […] ([1]; Brain concentration, Mean, male C57BL/6J mice, repeated oral dose 25 mg/kg): 2330 ng/g | concentration at 2 h ([1]; Brain concentration, male C57BL/6J mice, repeated oral dose 25 mg/kg, 2 h post last day (Day 4) dose, G3): 10.9 ng/g | concentration at […] ([1]; Brain concentration, male C57BL/6J mice, repeated oral dose 25 mg/kg, G3): 1080 ng/g | concentration at 1 h ([1]; CSF concentration): 3.71 ng/mL | concentration at 2 h ([1]; CSF concentration): 3.08 ng/mL | concentration at 4 h ([1]; CSF concentration): 4.08 ng/mL | concentration at 0.5 h ([1]; CSF concentration, Mean): 7.7 ng/mL | concentration at 1 h ([1]; CSF concentration, Mean): 3.32 ng/mL | concentration at 2 h ([1]; CSF concentration, Mean): 3.56 ng/mL | concentration at 4 h ([1]; CSF concentration, Mean): 3.42 ng/mL | concentration at […] ([1]; CSF concentration, Mean, male C57BL/6J mice, repeated oral dose 25 mg/kg): 50.2 ng/mL | concentration at […] ([1]; CSF concentration, male C57BL/6J mice, repeated oral dose 25 mg/kg, G2): 178 ng/mL | concentration at 1 h ([1]; CSF concentration, male C57BL/6J mice, single oral dose 25 mg/kg, 1 h, G3): 3.18 ng/mL | Cmax [1]: 200 ng/mL | Cmax ([1]; CSF, Mean, male C57BL/6J mice, single oral dose 25 mg/kg): 56.4 ng/mL | Cmax ([1]; brain, Mean, male C57BL/6J mice, last day (Day 4) of repeated oral dose 25 mg/kg): 2330 ng/mL | Cmax ([1]; brain, Mean, male C57BL/6J mice, single oral dose 25 mg/kg): 729 ng/mL | Cmax ([1]; plasma, Mean, male C57BL/6J mice, last day (Day 4) of repeated oral dose 25 mg/kg): 1360 ng/mL | Cmax ([1]; plasma, Mean, male C57BL/6J mice, single oral dose 25 mg/kg): 1150 ng/mL | concentration at 2 h ([1]; Plasma concentration): 100 ng/mL | concentration at 8 h ([1]; Plasma concentration): 0.765 ng/mL | concentration at 12 h ([1]; Plasma concentration): 0.198 ng/mL | concentration at 0.5 h ([1]; Plasma concentration, Mean): 528 ng/mL | concentration at 1 h ([1]; Plasma concentration, Mean): 235 ng/mL | concentration at 2 h ([1]; Plasma concentration, Mean): 74.4 ng/mL | concentration at 3 h ([1]; Plasma concentration, Mean): 72.4 ng/mL | concentration at 8 h ([1]; Plasma concentration, Mean): 0.87 ng/mL | concentration at 12 h ([1]; Plasma concentration, Mean): 0.174 ng/mL | concentration at […] ([1]; Plasma concentration, Mean, male C57BL/6J mice, repeated oral dose 25 mg/kg): 1360 ng/mL | concentration at 2 h ([1]; Plasma concentration, Mean, male C57BL/6J mice, single oral dose 25 mg/kg, 2 h): 122 ng/mL | concentration at 1 h ([1]; Plasma concentration, male C57BL/6J mice, repeated oral dose 25 mg/kg, 1 h post last day (Day 4) dose, G1): 112 ng/mL | concentration at 3 h ([1]; Plasma concentration, male C57BL/6J mice, repeated oral dose 25 mg/kg, 3 h post last day (Day 4) dose, G3): 73.1 ng/mL | concentration at 8 h ([1]; Plasma concentration, male C57BL/6J mice, repeated oral dose 25 mg/kg, 8 h post last day (Day 4) dose, G3): 1.24 ng/mL | concentration at […] ([1]; Plasma concentration, male C57BL/6J mice, repeated oral dose 25 mg/kg, G1): 1460 ng/mL | concentration at […] ([1]; Plasma concentration, male C57BL/6J mice, repeated oral dose 25 mg/kg, G2): 1520 ng/mL | concentration at […] ([1]; Plasma concentration, male C57BL/6J mice, repeated oral dose 25 mg/kg, G3): 1110 ng/mL | concentration at 1 h ([1]; Plasma concentration, male C57BL/6J mice, single oral dose 25 mg/kg, 1 h, G2): 162 ng/mL | concentration at 2 h ([1]; Plasma concentration, male C57BL/6J mice, single oral dose 25 mg/kg, 2 h, G2): 138 ng/mL | plasma concentration ([2]; 0.5 h): 35.7 ng/mL | plasma concentration ([2]; iv, 0.88 mg/kg, 1 h): 6.23 ng/mL | animal death related to drug administration [2]: no animal death related to drug administration | drug-related changes in clinical signs and behavioral responses [2]: no obvious drug-related changes in clinical signs and behavioral responses | AUC(0-t) [3, 5]: 86.4 ng·h/mL | Tlast [3, 5]: 0.500 h | CSF concentration [3, 6]: 2.71 ng/mL | Striatum concentration [3, 6]: 145 ng/g | Kp ([3]; male, beagle, dog, in vivo, po, 10 mg/kg, AUClast ratio of CSF to plasma): 0.00888 ± 0.0031 | Cmax ([3]; male, beagle, dog, in vivo, po, 10 mg/kg, Cmax, plasma, single PO 10 mg/kg, individual animal): 265 ng/mL | MRT last ([3]; male, beagle, dog, in vivo, po, 10 mg/kg, MRTlast): 19.7 min | concentration at […] ([3]; male, beagle, dog, in vivo, po, 10 mg/kg, plasma concentration): 255 ng/mL | concentration at 0.033 h ([3]; male, beagle, dog, in vivo, po, 10 mg/kg, plasma concentration, single PO 10 mg/kg, 119 s, individual animal): 2.92 ng/mL | Kp at 0.5 h ([3]; male, beagle, dog, in vivo, po, 10 mg/kg, ratio of cerebellum/plasma): 0.505 ± 0.117 | Kp at 0.5 h ([3]; male, beagle, dog, in vivo, po, 10 mg/kg, ratio of cortex/plasma): 0.704 ± 0.184 | Kp at 0.5 h ([3]; male, beagle, dog, in vivo, po, 10 mg/kg, ratio of striatum/plasma): 0.666 ± 0.0544 | Cerebellum concentration [3, 7]: 129 ng/g | Cortex concentration [3, 7]: 124 ng/g | Striatum concentration [3, 7]: 137 ng/g | concentration at 0.5 h ([4]; CSF concentration): 9.59 ng/mL | concentration at […] ([4]; CSF concentration): 20.5 ng/mL | concentration at 0.5 h ([4]; plasma concentration): 169 ng/mL | concentration at 1 h ([4]; plasma concentration): 52 ng/mL | concentration at 2 h ([4]; plasma concentration): 14.9 ng/mL | concentration at […] ([4]; plasma concentration): 760 ng/mL and 721 ng/mL | concentration at 0.5 h ([4]; plasma concentration, Mean): 187 ng/mL | concentration at 1 h ([4]; plasma concentration, Mean): 41 ng/mL | concentration at 2 h ([4]; plasma concentration, Mean): 18.7 ng/mL | concentration at […] ([4]; plasma concentration, Mean): 970 ng/mL and 692 ng/mL
